Assays:
MMP-9 [1] = assay: UV-induced MMP-9 mRNA expression, RT-PCR; format: cell-based, human; conditions: HaCaT cells; 10, 25, 50 μM; UV 100 J/m^2; 36 hours
Method: The inhibition effect of capsiate on the expression of MMP-2 and MMP-9, which induce angiogenesis, was investigated through measurement of mRNA expression by RT-PCR and protein expression and activity measurement by zymography.
In order to investigate the inhibition effect of capsiate on MMP expression, 5×10^5 HaCaT cells were placed on a 60 mm Petri dish and cultured for 24 hours in DMEM containing 10% FBS. Subsequently, the cells were cultured for 24 hours in DMEM containing 1% FBS until starvation. Then, after treating with capsiate at different concentrations (10 μM, 25 μM, 50 μM) for 30 minutes, followed by washing 3 times with PBS, UV was irradiated at an intensity of 100 J/m^2. Immediately after the UV irradiation, the cells were washed again with PBS and further cultured for 36 hours in DMEM containing 1% FBS, which was treated with capsiate at the same concentration as in the pre-treatment. The degree of intracellular mRNA expression for MMP-2 and MMP-9 was measured by RT-PCR in the same manner as in Example 3. The degree of MMP expression was compared with that of the non-treated group.

MMP-9 [2] = assay: MMP-9 mRNA in mouse skin, RT-PCR; format: in vivo; conditions: mouse tissue of Example 5; normalized using GAPDH
Method: mRNA was extracted from the mouse tissue of each test group of Example 5 and the level of expression thereof was evaluated in order to investigate the effect of capsiate on the expression of MMP-2 and MMP-9 induced by angiogenesis and immune response.
For RNA extraction from the tissue, each mouse tissue was subjected to skin biopsy, quickly frozen in liquid nitrogen and finely ground using a mortar. RNA was extracted from the mouse tissue using Trizol (Invitrogen, USA). PCR (PTC-225 Peltier thermal cycler, MJ Research, USA) was carried out using the RNA as template and using a commercial kit (reverse transcription system, Qiagen, USA). As a result, cDNA for each test group was prepared.
RT-PCR (Rotor Gene 6 series, Corbett Research, Australia) was carried out using thus prepared cDNA as template and using MMP-2 and MMP-9 primers (Qiagen, USA). The level of mRNA expression for MMP was normalized using GAPDH. The level of expression was compared with that of the non-treated group, which was treated with acetone only.

Lck = assay: Tyrosine phosphorylation in T cells, Western blotting with anti-PY antibody; format: cell-based, C57/BL6 mouse; conditions: mouse spleen T cells; 5 and 25 uM; α-CD3 and α-CD4 or α-CD3
Method: Western blotting was carried out using anti-tyrosine phosphorylation (anti-PY) antibody in order to investigate the mechanism by which the proliferation of T cells is inhibited by capsiate.
Specifically, 5×10^5 of the T cells isolated in Example 14-1 was placed on a 96-well plate and capsiate was treated at concentrations of 5 and 25 uM. After treating with 2 μg/mL α-CD3 and α-CD4, or 2 μg/mL α-CD3, followed by incubation for 10 minutes in ice and then incubation for 10 minutes at 37° C., centrifuge was carried out. The cells obtained from the centrifuge was lysed using RIPA buffer containing 2 mM EDTA, 137 mM NaCl, 20 mM Tris-HCl (pH 8.0), 1 mM sodium vanadate, 10 mM NaF, 1 mM phenylmethanesulfonyl fluoride (PMSF), 1% NP-40, 10% glycerol and protease inhibitor cocktail, and subjected to SDS-PAGE electrophoresis using 10% acrylamide gel in order to isolate the proteins. The isolated proteins were transferred to a nylon membrane and tyrosine phosphorylated proteins were separated using mouse anti-PY antibody (Becton Dickison, USA) and anti-mouse IgG-HRP conjugation antibody (1; 10,000, Zymed) as the secondary antibody. The isolated proteins were detected by ECL (Amersham, USA) and visualized using RAS 3000 imaging system (Fuji Film, Japan).

IL-6 = assay: UV-induced IL-6 mRNA in hairless mouse skin, RT-PCR; format: in vivo; conditions: 200 μL of 1 mM topically 1 hour before UV 5 kJ/m^2 once, 6 hours later
Method: In order to investigate the effect of capsiate on the production of IL-6 and TNF-α induced in skin tissue during inflammatory response, the inhibition ability of capsiate against the expression of the pro-inflammatory cytokines was evaluated in animal model as follows. Test groups were as follows: non-treated group—treated with acetone only without UV irradiation; test group A—treated with 200 μL of 1 mM capsiate dissolved in acetone without UV irradiation; UV group—treated with acetone and UV; test group B—treated with 200 μL of 1 mM capsiate dissolved in acetone followed by UV irradiation 1 hour later.
To this end, acetone and capsiate were treated prior to UV irradiation. After treating with UV once at an intensity of 5 kJ/m^2, hairless mouse was euthanized 6 hours later. mRNA was extracted from the mouse tissue obtained by skin biopsy and RT-PCR was carried out as follows. For RNA extraction from the tissue, each mouse tissue obtained by skin biopsy was quickly frozen in liquid nitrogen and ground finely using a mortar. RNA was extracted from the mouse tissue using Trizol (Invitrogen, USA), and PCR (PTC-225 Peltier thermal cycler, MJ Research, USA) was carried out using it as template and using a commercial kit (reverse transcription system, Qiagen, USA). As a result, cDNA was prepared from each group. […]

hairless mouse = assay: UV-induced erythema in hairless mouse; format: in vivo; conditions: 200 μL of 1 mM topically, UV 400, 600 and 800 J/m^2, 48 hours later
Method: When the skin is exposed to UV, erythema, or […] of the skin, occurs accompanied by edema, prior to a variety of cellular changes including inflammation, apoptosis, carcinogenesis, or the like [Tadashi Terui, Hachiro Tagami, Mediators of inflammation involved in UVB erythema, Journal of Dermatological Science 23 Suppl. 1 (2000) S1S5]. In order to investigate the effect of capsiate on erythema accompanied by UV-induced inflammatory response, experiment was carried out as follows using hairless mouse. Test groups were as follows: non-treated group—treated with acetone only without UV irradiation; test group A—treated with 200 μL of 1 mM capsiate dissolved in acetone without UV irradiation; UV group—treated with acetone and UV; test group B—treated with UV and 200 μL of 1 mM capsiate dissolved in acetone every 24 hours.
Acetone or capsiate diluted in acetone was applied on the back of the mouse of each test group. 1 hour later, a mask was attached on the back of the mouse such that UV could be irradiated only on an area of 1.2 cm×1.2 cm. UV was irradiated at an intensity of 400, 600 and 800 J/m^2. The degree of erythema was measured 48 hours later.

COc1cc(COC(=O)CCCC/C=C/C(C)C)ccc1O [capsiate]
UV-induced mRNA expression of MMP-9 (MMP-9 [1]): decreased | expression of MMP-9 (mRNA) in mouse skin tissue (MMP-9 [2]): decreased | tyrosine phosphorylation in T cells (Lck): inhibited | UV-induced expression of IL-6 (mRNA) in skin tissue (IL-6): decrease | degree of erythema (hairless mouse): weaker

Source: patent US9572786B2, “Use of capsiate or dihydrocapsidate” (Catholic University Industry Academy Cooperation Foundation, priority 2007, dated 2017)
